# ChEMBL document CHEMBL1201862, “PubChem BioAssay data set” (2004)
#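 96-well plates; 48 h exposure; 5 concentrations. Endpoints by linear interpolation between flanking doses. Not reached: highest tested concentration assigned. Abbreviation: GI50, concentration required for 50% inhibition of growth.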 Activity calls are given as the source filed them. Rule as the data show it: active = GI50 up to about 1.1 µM and inactive = higher.
# Assays:
# Assay in all cases: inhibition of tumour cell growth, NCI panel, 48 h
# A549 = tested on: A549
# HCT-15 = tested on: HCT-15
# HL-60 = tested on: HL-60
# K562 = tested on: K562
# KM12 = tested on: KM12
# M14 = tested on: M14
# RXF 393 = tested on: RXF 393
# SK-MEL-28 = tested on: SK-MEL-28
# SK-MEL-2 = tested on: SK-MEL-2
# SK-OV-3 = tested on: SK-OV-3
# SNB-75 = tested on: SNB-75
# SW-620 = tested on: SW-620
# UACC-257 = tested on: UACC-257
# UO-31 = tested on: UO-31
# CAKI-1 = tested on: CAKI-1
# HOP-92 = tested on: HOP-92
# OVCAR-5 = tested on: OVCAR-5
# SF-539 = tested on: SF-539
Compound,GI50 (A549),GI50 (HCT-15),GI50 (HL-60),GI50 (K562),GI50 (KM12),GI50 (M14),GI50 (RXF 393),GI50 (SK-MEL-28),GI50 (SK-MEL-2),GI50 (SK-OV-3),GI50 (SNB-75),GI50 (SW-620),GI50 (UACC-257),GI50 (UO-31),GI50 (CAKI-1),GI50 (HOP-92),GI50 (OVCAR-5),GI50 (SF-539)
O=C(O)OC12CCCCCC1C(=O)C1CCCCC12 (stereo unspecified),> 100 µM (inactive),78.2 µM,47 µM (inactive),42 µM (inactive),> 100 µM (inactive),> 100 µM (inactive),39.3 µM (inactive),> 100 µM (inactive),> 100 µM (inactive),> 100 µM (inactive),20.1 µM (inactive),> 100 µM (inactive),> 100 µM (inactive),> 100 µM (inactive),–,–,–,–
CCCCn1c2ccccc2c2ccc3c(c21)C(=O)C=CC3=O,> 100 µM (inactive),> 100 µM,–,84.3 µM (inactive),> 100 µM (inactive),> 100 µM (inactive),–,> 100 µM (inactive),> 100 µM (inactive),> 100 µM (inactive),0.0521 µM (active),> 100 µM (inactive),> 100 µM (inactive),62.2 µM (inactive),> 100 µM (inactive),> 100 µM (inactive),> 100 µM (inactive),> 100 µM (inactive)
[O-][S+]1c2ccccc2N=C(c2cccs2)CC1c1ccccc1O (stereo unspecified),> 100 µM (inactive),> 100 µM,> 100 µM (inactive),> 100 µM (inactive),93.5 µM (inactive),> 100 µM (inactive),63.1 µM (inactive),> 100 µM (inactive),> 100 µM (inactive),> 100 µM (inactive),32.4 µM (inactive),> 100 µM (inactive),> 100 µM (inactive),> 100 µM (inactive),> 100 µM (inactive),–,> 100 µM (inactive),> 100 µM (inactive)
Cc1ccc(-c2cc(=O)c3cc(C)c(C)c(C(=O)O)c3o2)cc1[N+](=O)[O-],> 100 µM (inactive),> 100 µM,–,> 100 µM (inactive),> 100 µM (inactive),> 100 µM (inactive),> 100 µM (inactive),> 100 µM (inactive),> 100 µM (inactive),> 100 µM (inactive),> 100 µM (inactive),> 100 µM (inactive),> 100 µM (inactive),> 100 µM (inactive),> 100 µM (inactive),–,> 100 µM (inactive),> 100 µM (inactive)
CC(=O)c1sc(-c2nc(C)c(C(=O)/C=C\c3ccc(/C=C\C(=O)c4sc(-c5nc(C)c(C(C)=O)s5)nc4C)cc3)s2)nc1C,> 100 µM (inactive),> 100 µM,> 100 µM (inactive),> 100 µM (inactive),> 100 µM (inactive),> 100 µM (inactive),> 100 µM (inactive),> 100 µM (inactive),> 100 µM (inactive),> 100 µM (inactive),–,> 100 µM (inactive),> 100 µM (inactive),> 100 µM (inactive),> 100 µM (inactive),–,> 100 µM (inactive),> 100 µM (inactive)
O=C(CCN1CCCC1)CC(c1ccccc1)c1c(O)c2ccccc2oc1=O (stereo unspecified),> 100 µM (inactive),> 100 µM,> 100 µM (inactive),> 100 µM (inactive),> 100 µM (inactive),> 100 µM (inactive),> 100 µM (inactive),> 100 µM (inactive),> 100 µM (inactive),> 100 µM (inactive),> 100 µM (inactive),> 100 µM (inactive),> 100 µM (inactive),> 100 µM (inactive),–,20.1 µM (inactive),–,–
CSC(=S)c1ccc(C(=S)SC)cc1,> 100 µM (inactive),> 100 µM,> 100 µM (inactive),> 100 µM (inactive),> 100 µM (inactive),> 100 µM (inactive),> 100 µM (inactive),–,–,> 100 µM (inactive),> 100 µM (inactive),> 100 µM (inactive),> 100 µM (inactive),> 100 µM (inactive),> 100 µM (inactive),> 100 µM (inactive),> 100 µM (inactive),> 100 µM (inactive)
COc1cccc2c1N[S@](=O)S2,> 100 µM (inactive),82.4 µM,> 100 µM (inactive),46 µM (inactive),> 100 µM (inactive),> 100 µM (inactive),–,> 100 µM (inactive),> 100 µM (inactive),> 100 µM (inactive),81.5 µM (inactive),> 100 µM (inactive),> 100 µM (inactive),42 µM (inactive),> 100 µM (inactive),> 100 µM (inactive),–,> 100 µM (inactive)
